Data reported in ChEMBL document CHEMBL1201862, “PubChem BioAssay data set” (2004).
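Interpolation was linear, between the two tested concentrations surrounding the appropriate level; five concentrations were tested over 48 hours in 96-well plates. GI50 = concentration required for 50% inhibition of growth.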 Active and inactive are the calls of the source. No stated cut-off is given here; in the data, active = GI50 up to about 1.1 µM and inactive = higher.

Tests used:
Test in all cases: NCI tumour cell line growth inhibition, 48 h
NCI-H226 = system: NCI-H226
SNB-75 = system: SNB-75
MOLT-4 = system: MOLT-4
EKVX = system: EKVX
RPMI-8226 = system: RPMI-8226
NCI-H460 = system: NCI-H460
CAKI-1 = system: CAKI-1
CCRF-CEM = system: CCRF-CEM
SK-OV-3 = system: SK-OV-3
M14 = system: M14
TK-10 = system: TK-10
LOX IMVI = system: LOX IMVI
M19-MEL = system: M19-MEL
OVCAR-5 = system: OVCAR-5
OVCAR-4 = system: OVCAR-4
IGROV-1 = system: IGROV-1
KM12 = system: KM12

Measured: GI50

CC(=O)OC1(C#N)CC2OC1C1NC21 (stereo not given)
inactive: NCI-H226 > 100 µM | SNB-75 > 100 µM | MOLT-4 > 100 µM | EKVX > 100 µM | RPMI-8226 > 100 µM | NCI-H460 > 100 µM | CAKI-1 > 100 µM | CCRF-CEM > 100 µM | SK-OV-3 > 100 µM | M14 > 100 µM | TK-10 > 100 µM | LOX IMVI > 100 µM | M19-MEL > 100 µM | OVCAR-5 > 100 µM | OVCAR-4 > 100 µM | IGROV-1 > 100 µM

N#CC(C(=N/O)/C(=N/O)C(C#N)c1ccc(Cl)cc1)c1ccc(Cl)cc1 (stereo not given)
inactive: NCI-H226 75.5 µM | SNB-75 42 µM | EKVX > 100 µM | RPMI-8226 40.5 µM | NCI-H460 > 100 µM | KM12 > 100 µM | CAKI-1 42.9 µM | SK-OV-3 > 100 µM | M14 > 100 µM | TK-10 > 100 µM | LOX IMVI 82.8 µM | M19-MEL > 100 µM | OVCAR-5 > 100 µM | OVCAR-4 > 100 µM | IGROV-1 > 100 µM

Cc1cc(O)nc(NNC(C#N)c2ccc([N+](=O)[O-])cc2)n1 (stereo not given)
inactive: NCI-H226 > 100 µM | SNB-75 34.8 µM | MOLT-4 > 100 µM | RPMI-8226 > 100 µM | NCI-H460 > 100 µM | KM12 84.9 µM | CAKI-1 33.4 µM | CCRF-CEM > 100 µM | SK-OV-3 > 100 µM | M14 > 100 µM | TK-10 > 100 µM | LOX IMVI > 100 µM | M19-MEL > 100 µM | OVCAR-5 > 100 µM | OVCAR-4 > 100 µM | IGROV-1 76.9 µM

O=C(/C=C/c1cccc([N+](=O)[O-])c1)c1cccnc1
inactive: NCI-H226 > 52.6 µM | SNB-75 > 52.8 µM | MOLT-4 26.4 µM | EKVX > 100 µM | RPMI-8226 19.4 µM | NCI-H460 50.7 µM | KM12 19.9 µM | CAKI-1 > 46.5 µM | CCRF-CEM 24.6 µM | SK-OV-3 > 100 µM | M14 13.7 µM | TK-10 > 100 µM | LOX IMVI 21.2 µM | M19-MEL 31.2 µM | OVCAR-5 > 100 µM | OVCAR-4 > 91 µM | IGROV-1 28.7 µM

Cc1ccc(S(=O)(=O)NC2CCCCO2)cc1 (stereo not given)
inactive: NCI-H226 > 100 µM | SNB-75 > 100 µM | MOLT-4 > 100 µM | EKVX > 100 µM | RPMI-8226 > 100 µM | NCI-H460 > 100 µM | KM12 > 100 µM | CAKI-1 > 100 µM | CCRF-CEM > 100 µM | SK-OV-3 > 100 µM | M14 > 100 µM | LOX IMVI > 100 µM | M19-MEL > 100 µM | OVCAR-5 > 100 µM | OVCAR-4 > 100 µM | IGROV-1 > 100 µM

CCC1(CN(C)C)CC/C(=C\c2ccc(OC)c(OC)c2)C1=O (stereo not given)
inactive: NCI-H226 > 100 µM | SNB-75 > 67.8 µM | MOLT-4 40.2 µM | EKVX > 54.6 µM | RPMI-8226 18.2 µM | NCI-H460 > 100 µM | KM12 > 100 µM | CAKI-1 74.5 µM | CCRF-CEM > 68.9 µM | SK-OV-3 > 100 µM | M14 > 100 µM | TK-10 > 100 µM | LOX IMVI > 100 µM | M19-MEL > 100 µM | OVCAR-5 > 69.5 µM | OVCAR-4 > 100 µM | IGROV-1 > 100 µM

CC1C(=O)CCC1C(Sc1ccccc1)(Sc1ccccc1)Sc1ccccc1 (stereo not given)
inactive: SNB-75 17.1 µM | MOLT-4 4.73 µM | EKVX 55.6 µM | RPMI-8226 12.6 µM | NCI-H460 41.4 µM | KM12 24.7 µM | CAKI-1 16.9 µM | CCRF-CEM 3.48 µM | SK-OV-3 80.2 µM | M14 25 µM | TK-10 47.9 µM | LOX IMVI 21 µM | M19-MEL 21.1 µM | OVCAR-5 > 100 µM | OVCAR-4 18.8 µM | IGROV-1 15.1 µM

Cn1cnc([N+](=O)[O-])c1Sc1nc2cccnc2s1
inactive: NCI-H226 17.1 µM | SNB-75 25.2 µM | MOLT-4 10.4 µM | EKVX 17.5 µM | RPMI-8226 19.2 µM | NCI-H460 34.1 µM | KM12 31.6 µM | CAKI-1 7.93 µM | SK-OV-3 51.3 µM | M14 13.7 µM | TK-10 15.7 µM | LOX IMVI 25.1 µM | M19-MEL 14.9 µM | OVCAR-5 47.2 µM | OVCAR-4 12.1 µM | IGROV-1 17.5 µM

Cc1ccc(C)c(NC(=O)c2cccc([N+](=O)[O-])c2O)c1
inactive: NCI-H226 16.6 µM | SNB-75 20.4 µM | MOLT-4 20.3 µM | EKVX 29.5 µM | RPMI-8226 5.71 µM | NCI-H460 20.9 µM | KM12 23.7 µM | CAKI-1 30.8 µM | CCRF-CEM > 100 µM | SK-OV-3 29.9 µM | M14 55.6 µM | LOX IMVI 16.7 µM | M19-MEL 24.7 µM | OVCAR-5 87.7 µM | OVCAR-4 13.2 µM | IGROV-1 22.2 µM
